# Patent publication US11339130B1 (Blade Therapeutics, Inc., priority 2016, dated 2022)
# What was measured:
# Human Calpain 1/NS1 = biological target: T1, Human Calpain 1/NS1 (Homo sapiens, UniProt P07384); assay: Calpain inhibition continuous fluorescence (FRET) assay, Human Calpain 1/NS1; format: biochemical; details: read-out: Human Calpain 1/NS1 IC50
# T1 sequence (P07384 1-714): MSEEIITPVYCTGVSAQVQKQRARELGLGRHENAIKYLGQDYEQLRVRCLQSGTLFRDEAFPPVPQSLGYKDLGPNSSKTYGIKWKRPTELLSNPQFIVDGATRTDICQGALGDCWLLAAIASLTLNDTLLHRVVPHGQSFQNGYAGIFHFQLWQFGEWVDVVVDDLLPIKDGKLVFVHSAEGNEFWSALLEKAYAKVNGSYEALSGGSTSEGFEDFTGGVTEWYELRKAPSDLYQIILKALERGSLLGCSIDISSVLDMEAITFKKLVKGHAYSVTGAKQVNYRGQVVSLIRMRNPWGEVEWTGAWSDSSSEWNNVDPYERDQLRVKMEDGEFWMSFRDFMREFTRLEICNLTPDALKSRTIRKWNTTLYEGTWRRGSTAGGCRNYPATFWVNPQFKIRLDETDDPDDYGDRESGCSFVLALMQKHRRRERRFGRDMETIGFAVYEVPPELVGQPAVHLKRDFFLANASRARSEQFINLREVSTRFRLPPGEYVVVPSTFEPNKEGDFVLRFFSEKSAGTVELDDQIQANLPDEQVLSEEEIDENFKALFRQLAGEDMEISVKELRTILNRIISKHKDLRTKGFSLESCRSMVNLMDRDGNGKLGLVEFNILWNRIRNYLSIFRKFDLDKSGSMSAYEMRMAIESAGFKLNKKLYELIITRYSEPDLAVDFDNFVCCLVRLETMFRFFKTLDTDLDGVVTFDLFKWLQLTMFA
# T1 sequence (P04632 1-268 partner): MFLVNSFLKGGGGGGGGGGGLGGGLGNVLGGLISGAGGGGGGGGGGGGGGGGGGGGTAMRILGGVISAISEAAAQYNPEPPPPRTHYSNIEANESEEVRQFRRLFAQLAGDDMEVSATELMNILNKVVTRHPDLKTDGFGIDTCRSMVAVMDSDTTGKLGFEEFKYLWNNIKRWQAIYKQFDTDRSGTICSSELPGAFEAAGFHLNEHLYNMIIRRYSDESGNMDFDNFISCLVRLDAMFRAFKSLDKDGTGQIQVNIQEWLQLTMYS
# Summary of the method: (§1)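 Continuous FRET read (ex 490/em 520 nm, 10 min) of calpain 1, 2 or 9 cleaving an internally quenched 5-FAM peptide, triggered by substrate with CaCl2 after enzyme–inhibitor incubation at ambient 25 °C, pH 7.5 Tris/NaCl/DTT buffer. IC50 from initial rates (1-5 min) via 4-parameter fit.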
# Human Calpain 9/NS1 = biological target: T2, Human Calpain 9/NS1 (Homo sapiens, UniProt O14815); assay: Calpain inhibition continuous fluorescence (FRET) assay, Human Calpain 9/NS1; format: biochemical; details: read-out: Human Calpain 9/NS1 IC50
# T2 sequence (O14815 1-690): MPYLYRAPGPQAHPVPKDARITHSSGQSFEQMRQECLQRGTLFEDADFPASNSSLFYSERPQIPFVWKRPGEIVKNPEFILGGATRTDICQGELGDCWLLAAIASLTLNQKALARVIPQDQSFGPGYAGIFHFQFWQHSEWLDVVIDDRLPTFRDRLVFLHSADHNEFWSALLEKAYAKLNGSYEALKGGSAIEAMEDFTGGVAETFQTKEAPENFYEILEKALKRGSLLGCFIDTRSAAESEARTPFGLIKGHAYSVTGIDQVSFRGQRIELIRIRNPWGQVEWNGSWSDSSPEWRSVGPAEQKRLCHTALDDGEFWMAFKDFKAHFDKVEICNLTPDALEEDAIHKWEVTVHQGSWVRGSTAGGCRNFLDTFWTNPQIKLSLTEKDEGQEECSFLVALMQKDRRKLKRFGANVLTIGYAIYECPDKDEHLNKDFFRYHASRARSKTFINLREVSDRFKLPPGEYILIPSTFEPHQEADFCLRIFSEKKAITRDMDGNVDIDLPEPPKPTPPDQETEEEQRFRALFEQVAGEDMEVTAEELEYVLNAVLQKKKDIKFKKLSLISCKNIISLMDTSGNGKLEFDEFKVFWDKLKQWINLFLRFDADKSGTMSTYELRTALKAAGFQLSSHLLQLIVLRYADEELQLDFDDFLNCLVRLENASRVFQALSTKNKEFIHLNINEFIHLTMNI
# T2 sequence (P04632 1-268 partner): T1 sequence (P04632 1-268 partner)
# Summary of the method: as §1
# [1] = tested on: Calpain activity in SH-SY5Y cells; assay: SH-SY5Y + AMC fluorescence assay (Suc-LLVY-AMC substrate); format: cell-based; details: read-out: SH-SY5Y + AMC IC50
# Human Calpain 2/NS1 = biological target: T3, Human Calpain 2/NS1 (Homo sapiens, UniProt P17655); assay: Calpain inhibition continuous fluorescence (FRET) assay, Human Calpain 2/NS1; format: biochemical; details: read-out: Human Calpain 2/NS1 IC50
# T3 sequence (P17655 1-700): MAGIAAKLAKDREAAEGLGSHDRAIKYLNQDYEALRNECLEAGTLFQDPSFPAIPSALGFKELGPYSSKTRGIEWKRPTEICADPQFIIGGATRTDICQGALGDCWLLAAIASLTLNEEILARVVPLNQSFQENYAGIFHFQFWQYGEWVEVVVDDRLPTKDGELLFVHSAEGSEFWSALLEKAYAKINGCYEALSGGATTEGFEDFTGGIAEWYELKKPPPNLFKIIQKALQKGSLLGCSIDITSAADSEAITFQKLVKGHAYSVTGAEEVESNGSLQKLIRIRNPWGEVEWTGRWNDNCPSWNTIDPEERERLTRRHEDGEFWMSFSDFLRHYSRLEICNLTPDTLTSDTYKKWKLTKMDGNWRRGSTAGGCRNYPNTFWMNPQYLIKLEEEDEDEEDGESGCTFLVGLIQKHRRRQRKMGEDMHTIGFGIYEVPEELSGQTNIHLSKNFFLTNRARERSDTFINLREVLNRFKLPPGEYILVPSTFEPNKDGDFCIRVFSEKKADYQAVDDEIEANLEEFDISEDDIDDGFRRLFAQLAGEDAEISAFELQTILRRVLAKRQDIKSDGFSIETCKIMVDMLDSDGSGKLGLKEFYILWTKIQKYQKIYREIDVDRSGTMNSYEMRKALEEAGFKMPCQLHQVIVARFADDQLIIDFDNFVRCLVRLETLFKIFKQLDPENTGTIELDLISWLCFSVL
# T3 sequence (P04632 1-268 partner): T1 sequence (P04632 1-268 partner)
# Summary of the method: as §1
# [2] = tested on: Calpain activity in SH-SY5Y cells (SBDP-150); assay: SH-SY5Y Spectrin western blot assay (SBDP-150 breakdown product, A23187-induced); format: cell-based; details: Homo sapiens; SH-SY5Y cells, A23187-induced SBDP-150, western blot; read-out: SH-SY5Y Spectrin IC50
Compound,IC50 (Human Calpain 1/NS1) [µM],IC50 (Human Calpain 9/NS1) [µM],IC50 [1] [µM],IC50 (Human Calpain 2/NS1) [µM],IC50 [2] [µM]
"NC(=O)C(=O)C(Cc1ccccc1)NC(=O)c1cn(C(F)F)nc1-c1ccc2ccccc2n1 (centres unmarked) [Compound 588, N-(4-amino-3,4-dioxo-1-phenylbutan-2-yl)-1-(difluoromethyl)-3-(quinolin-2-yl)-1H-pyrazole-4-carboxamide]",< 3,< 3,> 25,< 3,10 to 25
"Cn1cc(C(=O)NC(Cc2ccccc2)C(=O)C(N)=O)c(-c2cncc3ccccc23)n1 (centres unmarked) [Compound 591, N-(4-amino-3,4-dioxo-1-phenylbutan-2-yl)-3-(isoquinolin-4-yl)-1-methyl-1 h-pyrazole-4-carboxamide]",< 3,< 3,> 25,< 3,> 25
"Cc1nc(-c2ccccc2F)c(C(=O)N[C@H](Cc2ccccc2)C(=O)C(N)=O)o1 [Compound 592, (R)—N-(4-amino-3,4-dioxo-1-phenylbutan-2-yl)-4-(2-fluorophenyl)-2-methyloxazole-5-carboxamide]",< 3,< 3,< 10,< 3,10 to 25
"Cn1cc(C(=O)NC(Cc2ccccc2)C(=O)C(N)=O)c(-c2ccc3ncccc3c2)n1 (centres unmarked) [Compound 593, N-(4-amino-3,4-dioxo-1-phenylbutan-2-yl)-1-methyl-3-(quinolin-6-yl)-1H-pyrazole-4-carboxamide]",< 3,< 3,> 25,< 3,> 25
"Cc1c(F)cccc1-c1oncc1C(=O)NC(Cc1ccccc1)C(=O)C(N)=O (centres unmarked) [Compound 594, N-(4-amino-3,4-dioxo-1-phenylbutan-2-yl)-5-(3-fluoro-2-methylphenyl)isoxazole-4-carboxamide]",< 3,< 3,< 10,< 3,10 to 25
"COc1cccc(-c2oncc2C(=O)NC(Cc2ccccc2)C(=O)C(N)=O)c1F (centres unmarked) [Compound 595, N-(4-amino-3,4-dioxo-1-phenylbutan-2-yl)-5-(2-fluoro-3-methoxyphenyl)isoxazole-4-carboxamide]",< 3,< 3,> 25,< 3,10 to 25
"NC(=O)C(=O)C(Cc1ccccc1)NC(=O)c1cn(C(F)F)nc1-c1ccnc2ccccc12 (centres unmarked) [Compound 596, N-(4-amino-3,4-dioxo-1-phenylbutan-2-yl)-1-(difluoromethyl)-3-(quinolin-4-yl)-1H-pyrazole-4-carboxamide]",< 3,< 3,< 10,< 3,10 to 25
"Cn1cc(C(=O)NC(Cc2ccccc2)C(=O)C(N)=O)c(-c2cccc3ncccc23)n1 (centres unmarked) [Compound 597, N-(4-amino-3,4-dioxo-1-phenylbutan-2-yl)-1-methyl-3-(quinolin-5-yl)-1H-pyrazole-4-carboxamide]",< 3,< 3,10 to 25,< 3,10 to 25
"NC(=O)C(=O)C(Cc1ccccc1)NC(=O)c1cn(C(F)F)nc1-c1cccc2cnccc12 (centres unmarked) [Compound 598, N-(4-amino-3,4-dioxo-1-phenylbutan-2-yl)-1-(difluoromethyl)-3-(isoquinolin-5-yl)-1H-pyrazole-4-carboxamide]",< 3,< 3,< 10,< 3,< 10
"Cc1cncc(-c2oncc2C(=O)NC(Cc2ccccc2)C(=O)C(N)=O)c1 (centres unmarked) [Compound 600, N-(4-amino-3,4-dioxo-1-phenylbutan-2-yl)-5-(5-methylpyridin-3-yl)isoxazole-4-carboxamide]",< 3,< 3,> 25,< 3,10 to 25

# Next, values leading:
IC50 (Human Calpain 1/NS1) [µM],IC50 (Human Calpain 9/NS1) [µM],IC50 [1] [µM],IC50 (Human Calpain 2/NS1) [µM],IC50 [2] [µM],Compound
< 3,< 3,10 to 25,< 3,> 25,"NC(=O)C(=O)C(Cc1ccccc1)NC(=O)c1cn(C(F)F)nc1-c1cnccn1 (centres unmarked) [Compound 581, N-(4-amino-3,4-dioxo-1-phenylbutan-2-yl)-1-(difluoromethyl)-3-(pyrazin-2-yl)-1H-pyrazole-4-carboxamide]"
< 3,< 3,10 to 25,< 3,< 10,"Cc1cncc(-c2nn(C(F)F)cc2C(=O)NC(Cc2ccccc2)C(=O)C(N)=O)c1 (centres unmarked) [Compound 582, N-(4-amino-3,4-dioxo-1-phenylbutan-2-yl)-1-(difluoromethyl)-3-(5-methylpyridin-3-yl)-1H-pyrazole-4-carboxamide]"
< 3,< 3,> 25,< 3,> 25,Cc1c(C(=O)NC(Cc2ccccc2)C(=O)C(N)=O)c(-c2ccccc2)nn1C (centres unmarked) [Compound 583]
< 3,< 3,10 to 25,< 3,< 10,"Cc1cccc(-c2oncc2C(=O)NC(Cc2ccccc2)C(=O)C(N)=O)c1F (centres unmarked) [Compound 584, N-(4-amino-3,4-dioxo-1-phenylbutan-2-yl)-5-(2-fluoro-3-methylphenyl)isoxazole-4-carboxamide]"
< 3,< 3,10 to 25,< 3,10 to 25,"NC(=O)C(=O)C(Cc1ccccc1)NC(=O)c1cn(C(F)F)nc1-c1cncc(F)c1 (centres unmarked) [Compound 586, N-(4-amino-3,4-dioxo-1-phenylbutan-2-yl)-1-(difluoromethyl)-3-(5-fluoropyridin-3-yl)-1H-pyrazole-4-carboxamide]"
< 3,3 to 10,> 25,< 3,> 25,"Cn1cc(C(=O)NC(Cc2ccccc2)C(=O)C(N)=O)c(-c2ccc3ccccc3n2)n1 (centres unmarked) [Compound 587, N-(4-amino-3,4-dioxo-1-phenylbutan-2-yl)-1-methyl-3-(quinolin-2-yl)-1H-pyrazole-4-carboxamide]"
